In one series the target is T1, COX-2 (UniProt P35354).
T1 sequence (P35354 1-604): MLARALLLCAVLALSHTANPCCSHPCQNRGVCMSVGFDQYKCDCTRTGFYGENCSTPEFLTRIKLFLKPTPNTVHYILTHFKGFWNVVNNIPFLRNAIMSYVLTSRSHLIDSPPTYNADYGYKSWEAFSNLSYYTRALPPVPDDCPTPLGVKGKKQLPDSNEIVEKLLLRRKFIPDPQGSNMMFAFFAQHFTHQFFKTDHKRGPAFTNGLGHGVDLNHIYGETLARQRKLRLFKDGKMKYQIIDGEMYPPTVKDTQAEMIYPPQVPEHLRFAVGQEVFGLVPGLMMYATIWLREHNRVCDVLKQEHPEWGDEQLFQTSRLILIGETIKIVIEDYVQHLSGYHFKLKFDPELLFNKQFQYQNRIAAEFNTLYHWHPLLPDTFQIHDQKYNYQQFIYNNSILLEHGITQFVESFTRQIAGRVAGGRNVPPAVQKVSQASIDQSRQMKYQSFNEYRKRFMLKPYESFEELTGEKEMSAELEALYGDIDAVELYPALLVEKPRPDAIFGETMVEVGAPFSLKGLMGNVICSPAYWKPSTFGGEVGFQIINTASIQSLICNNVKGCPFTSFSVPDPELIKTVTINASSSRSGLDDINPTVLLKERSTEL
In words: Fast assay for COX-2 activity (PGE2 ELISA). In kind it is biochemical, human or murine. Conditions: fast assay: 10 min pre-incubation at 25° C., reaction stopped after two minutes, pH 7.5.

SMILES strings stand for the structures. Bounds are passed on as bounds.

On to `Cc1cc2c(cc1Cl)C=C(C(=O)O)C(C(F)(F)F)O2` (centres unmarked) [Example 6, 6-Chloro-7-methyl-2-trifluoromethyl-2H-1-benzopyran-3-carboxylic acid], for which the melting point was in the range of 207.5 to 209.3 °C. Further, at COX-2, the IC50 was less than 0.1 µM.

With `O=C(O)C1=Cc2cc(Br)ccc2OC1C(F)(F)F` (centres unmarked) [Example 13, 6-Bromo-2-trifluoromethyl-2H-1-benzopyran-3-carboxylic acid], the melting point was 189.6 to 190.9 °C. Half-maximal inhibition at COX-2 (IC50) was put at 0.3 µM.

Turning to `O=C(O)C1=Cc2cccc(Cl)c2OC1C(F)(F)F` (centres unmarked) [Example 14, 8-Chloro-2-trifluoromethyl-2H-1-benzopyran-3-carboxylic acid], the melting point is 224.5 to 225.6 °C. The same compound returned a 50% inhibitory concentration (IC50) at COX-2 greater than 100 µM.

The compound `O=C(O)C1=Cc2c(Cl)cc(Cl)cc2OC1C(F)(F)F` (centres unmarked) [Example 18, 5,7-Dichloro-2-trifluoromethyl-2H-1-benzopyran-3-carboxylic acid] yielded a melting point of 190.1 to 191.2 °C. The compound also yielded an IC50 against COX-2 of 12 µM.

As for `O=C(O)C1=Cc2cccc(-c3ccccc3)c2OC1C(F)(F)F` (centres unmarked) [Example 21, 8-Phenyl-2-trifluoromethyl-2H-1-benzopyran-3-carboxylic acid], the melting point was 171.6 to 175 °C. 11 µM corresponded to half-maximal inhibition against COX-2 (IC50).

`Cc1ccc2c(c1C)OC(C(F)(F)F)C(C(=O)O)=C2` (centres unmarked) [Example 22, 7,8-Dimethyl-2-trifluoromethyl-2H-1-benzopyran-3-carboxylic acid] registered a melting point of 245.2 to 247.3 °C. For the same compound, the IC50 on COX-2 is greater than 100 µM.

`CC(C)c1ccc2c(c1)OC(C(F)(F)F)C(C(=O)O)=C2` (centres unmarked) [Example 25, 7-(1-Methylethyl)-2-trifluoromethyl-2H-1-benzopyran-3-carboxylic acid] displayed a melting point of 158.3 to 159.7 °C. On COX-2, this compound gave an IC50 greater than 100 µM.

Compound `O=C(O)C1=Cc2ccc(-c3ccccc3)cc2OC1C(F)(F)F` (centres unmarked) [Example 26, 7-Phenyl-2-trifluoromethyl-2H-1-benzopyran-3-carboxylic acid] gave a melting point of 209.4 to 211.7 °C. Further, the 50% inhibitory concentration (IC50) at COX-2 is greater than 100 µM.

The compound `CCc1cc2c(cc1Cl)C=C(C(=O)O)C(C(F)(F)F)O2` (centres unmarked) [Example 27, 6-Chloro-7-ethyl-2-trifluoromethyl-2H-1-benzopyran-3-carboxylic acid] registered a melting point of 170.7 to 172.1 °C. Further, the IC50 against COX-2 stood at 67 µM.

`CCc1cc(Cl)cc2c1OC(C(F)(F)F)C(C(=O)O)=C2` (centres unmarked) [Example 29, 6-Chloro-8-ethyl-2-trifluoromethyl-2H-1-benzopyran-3-carboxylic acid] had a melting point of 197.2 to 199.1 °C. Besides, on COX-2, the IC50 is less than 0.1 µM.

`O=C(O)C1=Cc2cc(F)cc(Br)c2OC1C(F)(F)F` (centres unmarked) [Example 43, 8-Bromo-6-fluoro-2-trifluoromethyl-2H-1-benzopyran-3-carboxylic acid]: the melting point was greater than 300 °C. At COX-2, the IC50 worked out at 99 µM.

As to `CN(C)S(=O)(=O)c1ccc2c(c1)C=C(C(=O)O)C(C(F)(F)F)O2` (centres unmarked) [Example 50, 6-[(Dimethylamino)sulfonyl]-2-trifluoromethyl-2H-1-benzopyran-3-carboxylic acid], the melting point lay within 201.2 to 202.5 °C. Further, on COX-2, the concentration for half-maximal inhibition (IC50) turned out to be 79 µM.

As for `CNS(=O)(=O)c1ccc2c(c1)C=C(C(=O)O)C(C(F)(F)F)O2` (centres unmarked) [Example 52, 6-(Methylamino)sulfonyl-2-trifluoromethyl-2H-1-benzopyran-3-carboxylic acid], the melting point fell in the range of 207.6 to 208.6 °C. The compound also had an IC50 against COX-2 of 20 µM.

As to `CC(C)(C)NS(=O)(=O)c1ccc2c(c1)C=C(C(=O)O)C(C(F)(F)F)O2` (centres unmarked) [Example 54, 6-[(1,1-Dimethylethyl)aminosulfonyl]-2-trifluoromethyl-2H-1-benzopyran-3-carboxylic acid], the melting point fell in the range of 229.3 to 233.5 °C. Also, half-maximal inhibition against COX-2 (IC50) required 19 µM.

`O=C(O)C1=Cc2cc(C(=O)Cc3ccccc3)ccc2OC1C(F)(F)F` (centres unmarked) [Example 59, 6-Phenylacetyl-2-trifluoromethyl-2H-1-benzopyran-3-carboxylic acid] registered a melting point of 159 to 164 °C. On COX-2, this compound showed an IC50 of 43 µM.

Take `O=C(O)C1=Cc2c(ccc3ccccc23)OC1C(F)(F)F` (centres unmarked) [Example 63]: the melting point lay within 244.7 to 249.8 °C. On COX-2, the IC50 stood at 1.4 µM.

Take `CC(C)c1cc(Cl)cc2c1OC(C(F)(F)F)C(C(=O)O)=C2` (centres unmarked) [Example 103, 6-Chloro-8-(1-methylethyl)-2-trifluoramethyl-2H-1-benzopyran-3-carboxylic acid]: 36 µM corresponded to half-maximal inhibition against COX-2 (IC50).

In the case of `N#Cc1ccc(CN2c3ccc(Cl)cc3C=C(C(=O)O)C2C(F)(F)F)cc1` (centres unmarked) [Example 169, 6-Chloro-1-[(4-cyanophenyl)methyl]-1,2-dihydro-2-(trifluoromethyl)-3-quinolinecarboxylic acid], the melting point lay in the range of 258 to 260 °C.

`O=C(O)C1=Cc2cc(Cl)ccc2N(Cc2ccc([N+](=O)[O-])cc2)C1C(F)(F)F` (centres unmarked) [Example 170, 6-Chloro-1,2-dihydro-1-[(4-nitrophenyl)methyl]-2-(trifluoromethyl)-3-quinolinecarboxylic acid] returned a melting point of 225 to 228 °C.

On to `CCN1c2ccc(Cl)cc2C=C(C(=O)O)C1C(F)(F)F` (centres unmarked) [Example 171, 6-Chloro-1,2-dihydro-1-ethyl-2-(trifluoromethyl)-3-quinolinecarboxylic acid], for which the melting point was in the range of 201 to 202 °C.

As to `O=C(O)C1=Cc2cc(C(O)C(F)(F)F)ccc2OC1C(F)(F)F` (centres unmarked) [Example 173, 6-(2,2,2-Trifluoro-1-hydroxyethyl)-2-(trifluoromethyl)-2H-1-benzopyran-3-carboxylic acid], the melting point fell in the range of 114 to 120 °C.

Take `O=C(O)C1=Cc2cc(Cl)cnc2NC1C(F)(F)F` (centres unmarked) [Example 174, 6-Chloro-2-(triflouromethyl)-1,2-dihydro[1,8]napthyridine-3-carboxylic acid]: the melting point was in the range of 287.4 to 288.4 °C.

Consider `O=C(O)C1=Cc2cc(Cl)c(S(=O)(=O)c3ccc(Cl)cc3)cc2OC1C(F)(F)F` (centres unmarked) [Example 194, 6-Chloro-7-[(4-chlorophenyl)sulfonyl]-2-(trifluoromethyl)-2H-1-benzopyran-3-carboxylic acid], for which the melting point is 240.4 to 241.5 °C.

`O=C(O)C1=Cc2cc(Cl)c(Oc3cccc(Cl)n3)cc2OC1C(F)(F)F` (centres unmarked) [Example 199, 6-Chloro-7-[(6-chloro-2-pyridinyl)oxy]-2-(trifluoromethyl)-2H-1-benzopyran-3-carboxylic acid] returned a melting point of 226.4 to 227.4 °C. This compound gave an IC50 against COX-2 of less than 0.1 µM.

`O=C(O)C1=Cc2cc(Cl)c(Oc3ccccc3Cl)cc2OC1C(F)(F)F` (centres unmarked) [Example 204, 6-Chloro-7-(2-chlorophenoxy)-2-(trifluoromethyl)-2H-1-benzopyran-3-carboxylic acid] yielded a melting point of 199 to 199.1 °C.

The compound `O=C(O)C1=Cc2cc(Cl)c(Oc3ccc(Cl)c(F)c3)cc2OC1C(F)(F)F` (centres unmarked) [Example 205, 6-Chloro-7-(4-chloro-3-fluorophenoxy)-2-(trifluoromethyl)-2H-1-benzapyran-3-carboxylic acid] yielded a melting point of 206.8 to 207.4 °C.

The compound `CCC1=C(C(=O)O)C(C(F)(F)F)Oc2ccc(Cl)cc21` (centres unmarked) [Example 212, 6-Chloro-4-ethyl-2-trifluoromethyl-2H-1-benzopyran-3-carboxylic acid] showed a melting point of 170.9 to 172.1 °C.
